# Key:
# [1] = Half life in dog at 0.25 mg/kg, iv; assay type: ADME, organism-based, Canis lupus familiaris; design: dose 0.25 mg/kg, route intravenous; conditions: in vivo
# [2] = Clearance in dog at 0.25 mg/kg, iv; assay type: ADME, organism-based, Canis lupus familiaris; design: dose 0.25 mg/kg, route intravenous; conditions: in vivo
# [3] = Partition coefficient, log P of the compound; assay type: physicochemical; conditions: octanol/water
# [4] = biological target: T1, Serine/threonine-protein kinase Chk1 (Homo sapiens, UniProt O14757); experiment: Inhibition of human CHEK1
# T1 sequence (O14757 whole entry): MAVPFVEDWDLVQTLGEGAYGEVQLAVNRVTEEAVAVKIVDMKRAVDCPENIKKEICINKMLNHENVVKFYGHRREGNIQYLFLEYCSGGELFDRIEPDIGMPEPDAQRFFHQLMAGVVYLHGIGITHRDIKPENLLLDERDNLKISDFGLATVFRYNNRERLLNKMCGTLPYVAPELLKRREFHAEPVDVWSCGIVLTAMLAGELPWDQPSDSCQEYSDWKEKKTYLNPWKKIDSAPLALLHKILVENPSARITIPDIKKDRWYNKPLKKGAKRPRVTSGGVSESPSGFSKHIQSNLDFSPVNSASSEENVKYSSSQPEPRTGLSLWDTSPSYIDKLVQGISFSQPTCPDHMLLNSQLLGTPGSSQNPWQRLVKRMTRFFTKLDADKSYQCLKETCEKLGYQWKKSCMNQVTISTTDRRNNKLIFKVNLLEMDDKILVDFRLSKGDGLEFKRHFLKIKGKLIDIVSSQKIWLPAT
half-life [1],clearance [2],logP [3],IC50 [4],Structure (SMILES)
2.5 h,22 mL/min/kg,,1 nM,O=c1[nH]c2ccc(-c3cn[nH]c3)cc2cc1-c1cc2cc(CN3CCC(F)CC3)ccc2[nH]1
,,,4.6 nM,N#Cc1ccc2[nH]c(=O)c(-c3cc4cc(CN5CCCCC5)ccc4[nH]3)cc2c1
,,,29 nM,O=c1[nH]c2ccc(-c3cccc(O)c3)cc2cc1-c1cc2cc(CN3CCCCC3)ccc2[nH]1
,,,0.7 nM,NCC1CCN(Cc2ccc3[nH]c(-c4cc5cc(C(N)=O)ccc5[nH]c4=O)cc3c2)CC1
,,,5.6 nM,O=c1[nH]c2ccc(-c3cc[nH]n3)cc2cc1-c1cc2cc(CN3CCCCC3)ccc2[nH]1
,,,4 nM,N#Cc1ccc2[nH]c(=O)c(-c3cc4cc(CN5CCC(CN)CC5)ccc4[nH]3)cc2c1
,,,1.1 nM,Cn1cc(-c2ccc3[nH]c(=O)c(-c4cc5cc(CN6CCCCC6)ccc5[nH]4)cc3c2)cn1

# Continued, molecule first:
Structure (SMILES),half-life [1],clearance [2],logP [3],IC50 [4]
O=c1[nH]c2ccc(-c3cn[nH]c3)cc2cc1-c1cc2cc(CN3CCCCC3)ccc2[nH]1,4.4 h,30 mL/min/kg,2.81,
N#Cc1cccc2[nH]c(=O)c(-c3cc4cc(CN5CCC(CN)CC5)ccc4[nH]3)cc12,,,,580 nM
O=c1[nH]c2ccc(-n3nccn3)cc2cc1-c1cc2cc(CN3CCCCC3)ccc2[nH]1,,,,14 nM
N#Cc1ccc2cc(-c3cc4cc(CN5CCC(CN)CC5)ccc4[nH]3)c(=O)[nH]c2c1,,,,190 nM
O=c1[nH]c2ccccc2cc1-c1cc2ccccc2[nH]1,,,,1000 nM
O=c1[nH]c2ccc(-c3cn[nH]c3)cc2cc1-c1cc2cc(CN3CCOCC3)ccc2[nH]1,2 h,34 mL/min/kg,,0.83 nM
COc1cc(-c2ccc3[nH]c(=O)c(-c4cc5cc(CN6CCCCC6)ccc5[nH]4)cc3c2)ccc1O,,,,20 nM
CC(=O)N1CCN(Cc2ccc3[nH]c(-c4cc5cc(-c6cn[nH]c6)ccc5[nH]c4=O)cc3c2)CC1,1.5 h,27 mL/min/kg,,2.5 nM
CC(=O)N1CCN(Cc2ccc3[nH]c(-c4cc5cc(-c6cnn(C)c6)ccc5[nH]c4=O)cc3c2)CC1,4.1 h,6.5 mL/min/kg,,3 nM
Cn1nnc(-c2ccc3[nH]c(=O)c(-c4cc5cc(CN6CCCCC6)ccc5[nH]4)cc3c2)n1,,,,6.4 nM
O=c1[nH]c2ccc(Br)cc2cc1-c1cc2cc(CN3CCCCC3)ccc2[nH]1,,,,2.9 nM
O=c1[nH]c2ccc(-n3ccnn3)cc2cc1-c1cc2cc(CN3CCCCC3)ccc2[nH]1,,,,0.74 nM
O=c1[nH]c2ccc(-n3ccnc3)cc2cc1-c1cc2cc(CN3CCCCC3)ccc2[nH]1,,,,4.3 nM
COCC(=O)N1CCN(Cc2ccc3[nH]c(-c4cc5cc(-c6cn[nH]c6)ccc5[nH]c4=O)cc3c2)CC1,2 h,23 mL/min/kg,,2.1 nM
O=c1[nH]c2ccc(-c3cnsc3)cc2cc1-c1cc2cc(CN3CCCCC3)ccc2[nH]1,,,,0.64 nM
NC(=O)c1ccc2[nH]c(=O)c(-c3cc4cc(CN5CCCCC5)ccc4[nH]3)cc2c1,,,,0.34 nM

# From ChEMBL document CHEMBL1145296, “Development of 6-substituted indolylquinolinones as potent Chek1 kinase inhibitors” (Bioorg Med Chem Lett, 2006)
